Experiments:
[1] = biological target: T1, ALA2 (aminophospholipid ATPase 2) (Arabidopsis thaliana, UniProt P98205); assay: lipid-stimulated ATPase activity of purified complex; format: biochemical
T1 sequence (P98205 1-1107): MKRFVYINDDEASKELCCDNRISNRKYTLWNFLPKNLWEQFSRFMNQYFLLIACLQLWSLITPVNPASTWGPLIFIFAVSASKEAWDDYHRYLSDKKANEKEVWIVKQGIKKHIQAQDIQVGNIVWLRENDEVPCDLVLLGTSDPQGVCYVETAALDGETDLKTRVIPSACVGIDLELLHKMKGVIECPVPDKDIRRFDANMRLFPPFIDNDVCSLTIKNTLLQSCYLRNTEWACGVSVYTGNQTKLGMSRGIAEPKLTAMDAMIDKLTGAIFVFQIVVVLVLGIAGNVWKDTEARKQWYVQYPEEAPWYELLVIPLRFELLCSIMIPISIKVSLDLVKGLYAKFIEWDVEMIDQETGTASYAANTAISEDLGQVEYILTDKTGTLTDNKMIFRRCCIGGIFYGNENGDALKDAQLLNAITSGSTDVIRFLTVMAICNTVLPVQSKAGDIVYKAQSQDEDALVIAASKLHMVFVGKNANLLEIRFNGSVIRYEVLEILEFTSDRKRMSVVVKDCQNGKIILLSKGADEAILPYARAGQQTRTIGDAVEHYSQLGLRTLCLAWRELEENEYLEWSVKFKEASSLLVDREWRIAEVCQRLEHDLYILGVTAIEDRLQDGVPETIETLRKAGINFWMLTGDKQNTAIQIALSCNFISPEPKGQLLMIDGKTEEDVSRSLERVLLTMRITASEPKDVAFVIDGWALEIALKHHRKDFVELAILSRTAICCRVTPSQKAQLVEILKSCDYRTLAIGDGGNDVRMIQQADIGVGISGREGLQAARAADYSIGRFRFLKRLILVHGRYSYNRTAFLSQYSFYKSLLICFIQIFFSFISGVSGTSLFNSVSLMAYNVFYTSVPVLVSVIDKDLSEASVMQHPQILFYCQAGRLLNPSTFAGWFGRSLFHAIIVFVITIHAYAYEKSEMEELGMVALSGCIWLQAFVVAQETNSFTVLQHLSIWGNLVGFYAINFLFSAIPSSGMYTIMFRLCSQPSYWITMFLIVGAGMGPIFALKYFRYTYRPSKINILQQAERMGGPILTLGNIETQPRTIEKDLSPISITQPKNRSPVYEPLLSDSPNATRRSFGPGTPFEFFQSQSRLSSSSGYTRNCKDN
T1 sequence (Q8L8W0 2-350 partner): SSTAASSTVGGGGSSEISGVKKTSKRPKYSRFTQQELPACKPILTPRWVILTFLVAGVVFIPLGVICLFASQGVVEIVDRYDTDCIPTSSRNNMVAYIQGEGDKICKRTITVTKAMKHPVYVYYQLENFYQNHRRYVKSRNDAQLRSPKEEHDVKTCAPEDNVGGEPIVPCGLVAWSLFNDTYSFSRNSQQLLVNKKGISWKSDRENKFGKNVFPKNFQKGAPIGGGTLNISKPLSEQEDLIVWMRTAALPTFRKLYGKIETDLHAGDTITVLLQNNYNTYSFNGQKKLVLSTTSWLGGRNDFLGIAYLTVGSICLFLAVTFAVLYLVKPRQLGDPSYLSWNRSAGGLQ

[2] = biological target: T1, ALA2 (aminophospholipid ATPase 2)
[3] = biological target: T1, ALA2 (aminophospholipid ATPase 2); assay: lipid-stimulated ATPase activity of purified complex; format: biochemical; remark: listed apart in the source

Q: CCCCCCCCCCCCCCCC(=O)OC[C@@H](O)COP(=O)(O)OC[C@H](N)C(=O)O [Lyso-PS, 1-hexadecanoyl-sn-glycero-3-phospho-L-serine] was tested. Which EC50 [1] did it give?
A: The EC50 was 34 ± 7 µM.

Q: With [O]=[V]([OH])([OH])[OH] [orthovanadate] as the compound, how does the IC50 [2] read?
A: The IC50 was about 22 µM.

Q: Which “lipid-stimulated ATPase activity of purified complex” value [3] does the source give for CCCCCCCC/C=C\CCCCCCCC(=O)O[C@H](COC(=O)CCCCCCCCCCCCCCC)COP(=O)(O)OC[C@@H](N)C(=O)O [P-D-S, 1-palmitoyl-2-oleoyl-sn-glycero-3-phospho-D-serine] here?
A: Its value is “The stereoisomer phosphatidyl-D-serine (P-D-S) was less than half as effective at stimulating ATPase activity compared with PS”.

From publication PMC6402034 (Biochemical Journal, 2019)
